Measured values from article PMC11945486, “TAS1R2/TAS1R3 Single-Nucleotide Polymorphisms Affect Sweet Taste Receptor Activation by Sweeteners: The SWEET Project” (Nutrients, 2025).
Where a chain is given by its changes, count along the chain named.

Columns and labels:
mTAS1R2-WT/mTAS1R3-I60T = target: T1, mTAS1R2-WT/mTAS1R3-I60T (Mus musculus, UniProt Q925D8+Q925I4, I60T); assay: Calcium mobilisation assay, HEK293T-Gα16gust44 cells, mouse TAS1R3-I60T variant; assay type: cell-based; conditions: mTAS1R2-WT + mTAS1R3-I60T; "-": no activation
T1 construct: expressed in transfected cells; host or cells: HEK293T-Gα16gust44
T1 sequence (Q925I4 20-843): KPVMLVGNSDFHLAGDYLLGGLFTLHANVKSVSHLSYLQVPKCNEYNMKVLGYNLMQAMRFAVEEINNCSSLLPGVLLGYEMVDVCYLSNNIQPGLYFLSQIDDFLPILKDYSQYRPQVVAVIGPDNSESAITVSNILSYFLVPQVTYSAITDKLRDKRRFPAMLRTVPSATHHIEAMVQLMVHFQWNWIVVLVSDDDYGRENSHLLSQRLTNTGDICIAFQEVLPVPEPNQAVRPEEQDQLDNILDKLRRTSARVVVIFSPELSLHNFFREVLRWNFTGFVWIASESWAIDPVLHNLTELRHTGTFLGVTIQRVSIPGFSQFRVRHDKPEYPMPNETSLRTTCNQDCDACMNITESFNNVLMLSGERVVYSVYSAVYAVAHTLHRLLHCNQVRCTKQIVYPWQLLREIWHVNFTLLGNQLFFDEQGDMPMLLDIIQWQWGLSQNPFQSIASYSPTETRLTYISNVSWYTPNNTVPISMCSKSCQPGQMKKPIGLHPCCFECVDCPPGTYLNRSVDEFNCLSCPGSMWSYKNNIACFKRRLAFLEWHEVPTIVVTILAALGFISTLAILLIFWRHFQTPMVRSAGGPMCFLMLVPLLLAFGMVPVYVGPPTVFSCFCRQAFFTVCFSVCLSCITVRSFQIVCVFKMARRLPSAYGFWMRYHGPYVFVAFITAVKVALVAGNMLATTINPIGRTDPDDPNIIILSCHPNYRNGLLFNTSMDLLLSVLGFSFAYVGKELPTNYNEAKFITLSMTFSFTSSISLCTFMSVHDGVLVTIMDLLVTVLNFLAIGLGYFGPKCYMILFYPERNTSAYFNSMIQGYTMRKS
T1 sequence (Q925D8 21-858 I60T): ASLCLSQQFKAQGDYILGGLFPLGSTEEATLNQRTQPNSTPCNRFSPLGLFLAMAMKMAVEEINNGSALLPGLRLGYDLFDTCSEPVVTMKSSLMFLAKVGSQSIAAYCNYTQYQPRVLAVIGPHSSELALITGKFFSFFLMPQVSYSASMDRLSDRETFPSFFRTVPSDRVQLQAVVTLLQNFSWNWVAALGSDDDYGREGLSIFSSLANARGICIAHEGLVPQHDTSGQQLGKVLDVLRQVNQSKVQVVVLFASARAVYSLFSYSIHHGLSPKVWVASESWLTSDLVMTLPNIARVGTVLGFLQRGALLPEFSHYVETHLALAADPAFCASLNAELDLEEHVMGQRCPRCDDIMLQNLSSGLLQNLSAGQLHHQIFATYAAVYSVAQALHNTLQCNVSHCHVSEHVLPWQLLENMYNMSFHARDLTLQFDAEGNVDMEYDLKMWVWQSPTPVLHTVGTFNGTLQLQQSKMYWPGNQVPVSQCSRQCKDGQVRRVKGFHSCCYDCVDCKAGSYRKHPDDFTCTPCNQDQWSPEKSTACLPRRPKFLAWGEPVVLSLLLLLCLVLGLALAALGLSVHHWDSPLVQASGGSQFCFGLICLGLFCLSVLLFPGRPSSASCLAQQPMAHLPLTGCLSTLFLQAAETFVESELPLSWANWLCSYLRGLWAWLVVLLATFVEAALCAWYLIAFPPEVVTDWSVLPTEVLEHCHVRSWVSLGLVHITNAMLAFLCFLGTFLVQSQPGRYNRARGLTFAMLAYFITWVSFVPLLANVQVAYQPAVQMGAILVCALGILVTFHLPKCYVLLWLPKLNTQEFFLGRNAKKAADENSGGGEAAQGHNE
Experimental: (§1) The HEK293T cells were kindly provided by Jay P. Slack (Givaudan Flavors Corporation; Cincinnati, OH, USA). HEK293T cells stably transfected with Gα16gust44 [43, 67] were seeded in poly-D-lysine-coated clear-bottom black 96-well plates (0.35 × 10^5 cells/well) in high-glucose DMEM supplemented with 2 mM GlutaMAX, 10% dialysed foetal bovine serum with penicillin/streptomycin and G418 (400 μg/mL) at 37 °C and 6.3% CO2 in a humidified atmosphere as previously reported. […] As a negative control, HEK293T cells were mock-transfected with the empty expression vector. After a further 24 h of incubation, the HEK293T cells were washed with C1 buffer (130 mM NaCl, 5 mM KCl, 10 mM HEPES pH 7.4 and 2 mM CaCl2). The 96-well plates containing the cells were then stimulated with sweet-tasting compounds. […] Different concentration ranges were tested depending on the sweet compound injected. The Ca^2+ changes were expressed as fractional changes in fluorescent light intensity: ΔF/F = (F − F0)/F0, where F was the fluorescent light intensity at each point, and F0 was the value of emitted fluorescent light prior to stimulus application. To calculate dose–response relationships, the changes in fluorescence upon stimulus application were averaged, mock-subtracted and baseline-corrected. The dose–response data obtained were adjusted using a 4-parameter logistic equation. The half-maximal effective concentrations (EC50 values) and maximal signal amplitudes were calculated using SigmaPlot software (version 15.0) (Systat Software; San Jose, CA, USA).
(§2) HEK293T-Gα16gust44 cells were transiently cotransfected with pcDNA6-MAX-mTAS1R2-FLAG, pcDNA4-MAX-mTAS1R3-WT-FLAG or pcDNA4-MAX-mTAS1R3-I60T-FLAG, and pCMV-GCaMP5G as previously described in detail. After 24 h, the cells were washed with C1 buffer and stimulated with a logarithmically increasing range of sweetener concentrations. Calcium responses during automated application were monitored using a FlexStation®3 Multi-Mode microplate reader. The dose–response curves, EC50 values and maximal signal amplitudes were calculated as previously described.
(§3) For in vitro calcium mobilisation assay performed on hTAS1R2-SNPs, hTAS1R3-SNPs and mTAS1R3-I60T, 6 to 7 concentrations were tested for each sweet compound, plus buffer alone. All concentration–receptor combinations were measured in duplicate, and each experiment was repeated at least 4 times (8 wells/concentration). Results were expressed for each concentration as ΔF/F mean ± SEM and represented as dose–response curves.

mTAS1R2-WT/mTAS1R3-WT = target: T2, mTAS1R2-WT/mTAS1R3-WT (Mus musculus, UniProt Q925D8+Q925I4); assay: Calcium mobilisation assay, HEK293T-Gα16gust44 cells, mouse sweet taste receptor WT; assay type: cell-based; conditions: mTAS1R2-WT + mTAS1R3-WT; "-": no activation
T2 construct: expressed in transfected cells; host or cells: HEK293T-Gα16gust44
T2 sequence (Q925I4 20-843): T1 sequence (Q925I4 20-843)
T2 sequence (Q925D8 21-858): T1 sequence (Q925D8 21-858 I60T) with T40I
Experimental: as §1, §2, §3

EC50 (mTAS1R2-WT/mTAS1R3-I60T): 2540 ± 61 µM
EC50 (mTAS1R2-WT/mTAS1R3-WT): 1520 ± 17 µM
Compound: O=C1NS(=O)(=O)c2ccccc21 [Saccharin, saccharin]
